US11547697B2, “Heterocyclic compounds and uses thereof” (MILLENNIUM PHARMACEUTICALS, INC., priority 2009, dated 2023)
Read-outs that look alike come from different tables or passages of the source.

Assays:
p110α/p85α = p110α/p85α (Homo sapiens (Human), UniProt P42336); test: PI 3-Kinase (human) HTRF assay, p110α/p85α; type: biochemical; conditions: read-out: PI3K α IC50
p110γ = p110γ (Homo sapiens (Human), UniProt P48736); test: PI 3-Kinase (human) HTRF assay, p110γ; type: biochemical; conditions: read-out: PI3K γ IC50
Sequence of p110γ (P48736 whole entry): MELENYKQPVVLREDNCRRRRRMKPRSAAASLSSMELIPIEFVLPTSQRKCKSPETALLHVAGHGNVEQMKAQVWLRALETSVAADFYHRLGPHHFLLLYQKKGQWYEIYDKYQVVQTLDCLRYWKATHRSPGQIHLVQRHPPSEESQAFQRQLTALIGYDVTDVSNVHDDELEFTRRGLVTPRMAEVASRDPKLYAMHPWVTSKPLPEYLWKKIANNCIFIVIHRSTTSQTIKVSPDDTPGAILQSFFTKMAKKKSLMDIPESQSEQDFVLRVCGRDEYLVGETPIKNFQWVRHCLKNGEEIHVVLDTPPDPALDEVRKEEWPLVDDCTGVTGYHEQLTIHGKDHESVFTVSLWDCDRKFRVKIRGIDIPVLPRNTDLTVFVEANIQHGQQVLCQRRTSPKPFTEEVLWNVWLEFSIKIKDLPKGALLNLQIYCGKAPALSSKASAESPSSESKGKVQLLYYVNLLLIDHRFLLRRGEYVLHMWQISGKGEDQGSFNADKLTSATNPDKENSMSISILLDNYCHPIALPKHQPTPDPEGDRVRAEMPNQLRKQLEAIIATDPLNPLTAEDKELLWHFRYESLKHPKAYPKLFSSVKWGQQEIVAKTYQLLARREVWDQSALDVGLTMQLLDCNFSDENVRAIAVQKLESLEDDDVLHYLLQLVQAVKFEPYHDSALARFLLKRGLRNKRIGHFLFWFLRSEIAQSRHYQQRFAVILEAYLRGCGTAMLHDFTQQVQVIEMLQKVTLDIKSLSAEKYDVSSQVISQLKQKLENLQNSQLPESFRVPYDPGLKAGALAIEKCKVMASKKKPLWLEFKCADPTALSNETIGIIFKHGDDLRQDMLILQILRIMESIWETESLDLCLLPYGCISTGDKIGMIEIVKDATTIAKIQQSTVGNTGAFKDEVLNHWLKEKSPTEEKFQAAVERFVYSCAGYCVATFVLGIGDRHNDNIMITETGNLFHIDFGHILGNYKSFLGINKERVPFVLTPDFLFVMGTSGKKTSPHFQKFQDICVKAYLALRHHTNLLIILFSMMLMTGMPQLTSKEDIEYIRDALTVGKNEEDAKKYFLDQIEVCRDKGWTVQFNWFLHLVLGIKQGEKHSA

p110β/p85α = p110β/p85α (Homo sapiens (Human), UniProt P42338); test: PI 3-Kinase (human) HTRF assay, p110β/p85α; type: biochemical; conditions: read-out: PI3K β IC50
Sequence of p110β/p85α (P42338 whole entry): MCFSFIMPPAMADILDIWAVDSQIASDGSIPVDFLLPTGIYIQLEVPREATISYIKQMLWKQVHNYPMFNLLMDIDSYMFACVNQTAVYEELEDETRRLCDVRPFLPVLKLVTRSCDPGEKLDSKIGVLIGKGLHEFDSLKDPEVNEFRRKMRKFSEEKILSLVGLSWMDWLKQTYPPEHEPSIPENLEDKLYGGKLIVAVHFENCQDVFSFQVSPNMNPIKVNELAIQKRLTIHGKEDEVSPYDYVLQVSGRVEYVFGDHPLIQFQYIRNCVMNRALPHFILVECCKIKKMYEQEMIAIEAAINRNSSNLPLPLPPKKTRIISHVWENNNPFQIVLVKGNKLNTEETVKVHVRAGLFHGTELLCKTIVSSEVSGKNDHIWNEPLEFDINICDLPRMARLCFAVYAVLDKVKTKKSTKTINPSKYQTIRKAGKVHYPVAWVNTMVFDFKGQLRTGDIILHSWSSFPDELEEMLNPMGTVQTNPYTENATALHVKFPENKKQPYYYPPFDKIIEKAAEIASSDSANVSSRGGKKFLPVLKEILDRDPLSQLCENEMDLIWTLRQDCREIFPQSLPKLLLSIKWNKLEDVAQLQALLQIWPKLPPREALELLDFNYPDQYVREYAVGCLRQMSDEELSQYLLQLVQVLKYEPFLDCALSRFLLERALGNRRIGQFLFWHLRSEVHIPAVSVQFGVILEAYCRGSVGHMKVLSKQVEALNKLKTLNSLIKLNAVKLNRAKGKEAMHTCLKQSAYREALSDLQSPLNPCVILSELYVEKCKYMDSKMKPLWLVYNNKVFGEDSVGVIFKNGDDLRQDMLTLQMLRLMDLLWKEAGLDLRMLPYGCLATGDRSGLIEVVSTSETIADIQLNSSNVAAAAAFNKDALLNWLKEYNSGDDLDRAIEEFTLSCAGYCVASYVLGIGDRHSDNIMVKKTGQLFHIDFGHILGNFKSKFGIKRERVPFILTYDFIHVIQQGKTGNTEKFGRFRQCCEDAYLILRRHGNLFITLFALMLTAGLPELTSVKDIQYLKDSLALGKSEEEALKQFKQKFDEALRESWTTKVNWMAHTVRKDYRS
Sequence of p110β/p85α (P27986 whole entry partner): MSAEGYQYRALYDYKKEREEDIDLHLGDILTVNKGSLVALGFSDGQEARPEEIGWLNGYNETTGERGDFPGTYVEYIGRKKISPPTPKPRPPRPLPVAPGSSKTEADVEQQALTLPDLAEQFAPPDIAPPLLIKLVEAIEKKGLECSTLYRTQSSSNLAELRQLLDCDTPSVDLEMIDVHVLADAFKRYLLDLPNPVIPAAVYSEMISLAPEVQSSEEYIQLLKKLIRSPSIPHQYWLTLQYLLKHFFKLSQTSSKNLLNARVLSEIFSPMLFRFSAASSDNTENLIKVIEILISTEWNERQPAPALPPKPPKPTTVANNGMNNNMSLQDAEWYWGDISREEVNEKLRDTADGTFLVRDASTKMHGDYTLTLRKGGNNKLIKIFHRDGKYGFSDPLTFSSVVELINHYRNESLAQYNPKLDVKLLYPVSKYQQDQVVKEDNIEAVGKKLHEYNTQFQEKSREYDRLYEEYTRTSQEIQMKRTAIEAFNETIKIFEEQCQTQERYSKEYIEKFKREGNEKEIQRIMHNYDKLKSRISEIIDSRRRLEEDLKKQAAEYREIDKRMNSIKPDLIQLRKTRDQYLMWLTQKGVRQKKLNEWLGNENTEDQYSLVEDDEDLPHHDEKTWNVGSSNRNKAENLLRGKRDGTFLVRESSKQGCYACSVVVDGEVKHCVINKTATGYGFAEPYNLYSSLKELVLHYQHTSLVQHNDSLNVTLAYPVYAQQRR

[1] = test system: tumor cells with a PI3Kα mutation (e.g., MDA-MB-361 and T47D); test: Proliferation of tumor cells with PI3Kα mutation; type: cell-based; conditions: Homo sapiens, T47D cells
p110δ/p85α = p110δ/p85α (Homo sapiens (Human), UniProt O00329); test: PI 3-Kinase (human) HTRF assay, p110δ/p85α; type: biochemical; conditions: in vitro; read-out: PI3K δ IC50
Sequence of p110δ/p85α (O00329 whole entry): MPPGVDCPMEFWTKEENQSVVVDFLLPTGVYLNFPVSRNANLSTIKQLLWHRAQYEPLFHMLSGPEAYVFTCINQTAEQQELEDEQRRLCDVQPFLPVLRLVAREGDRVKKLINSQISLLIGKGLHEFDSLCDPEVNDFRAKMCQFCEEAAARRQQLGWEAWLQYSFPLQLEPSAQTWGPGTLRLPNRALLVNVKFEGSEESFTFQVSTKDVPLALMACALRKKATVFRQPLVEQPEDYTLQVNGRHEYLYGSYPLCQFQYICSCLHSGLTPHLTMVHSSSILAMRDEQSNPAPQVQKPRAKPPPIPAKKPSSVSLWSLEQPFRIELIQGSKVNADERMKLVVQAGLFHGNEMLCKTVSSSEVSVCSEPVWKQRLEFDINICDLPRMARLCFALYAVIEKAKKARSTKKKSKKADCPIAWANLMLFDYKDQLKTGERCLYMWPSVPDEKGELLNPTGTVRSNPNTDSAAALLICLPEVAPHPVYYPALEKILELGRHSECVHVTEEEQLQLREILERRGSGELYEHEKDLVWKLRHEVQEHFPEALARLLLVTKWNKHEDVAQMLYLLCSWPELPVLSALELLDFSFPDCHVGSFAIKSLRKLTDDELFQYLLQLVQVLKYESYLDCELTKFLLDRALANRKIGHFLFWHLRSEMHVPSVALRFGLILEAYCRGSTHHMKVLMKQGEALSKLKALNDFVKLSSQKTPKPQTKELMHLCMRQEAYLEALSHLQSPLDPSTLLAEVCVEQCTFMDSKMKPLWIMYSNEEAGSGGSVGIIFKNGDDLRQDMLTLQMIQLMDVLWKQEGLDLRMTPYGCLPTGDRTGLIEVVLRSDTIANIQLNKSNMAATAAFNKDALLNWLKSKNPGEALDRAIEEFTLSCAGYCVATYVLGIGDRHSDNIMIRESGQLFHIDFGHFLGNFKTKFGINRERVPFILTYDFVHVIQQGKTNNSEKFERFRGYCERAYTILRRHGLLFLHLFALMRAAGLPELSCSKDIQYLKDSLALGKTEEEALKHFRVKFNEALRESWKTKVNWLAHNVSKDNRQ
Sequence of p110δ/p85α (P27986 whole entry partner): as the sequence (P27986 whole entry partner) above

[2] = read-out: T47D proliferation IC50

Sequence of p110α/p85α (P42336 whole entry): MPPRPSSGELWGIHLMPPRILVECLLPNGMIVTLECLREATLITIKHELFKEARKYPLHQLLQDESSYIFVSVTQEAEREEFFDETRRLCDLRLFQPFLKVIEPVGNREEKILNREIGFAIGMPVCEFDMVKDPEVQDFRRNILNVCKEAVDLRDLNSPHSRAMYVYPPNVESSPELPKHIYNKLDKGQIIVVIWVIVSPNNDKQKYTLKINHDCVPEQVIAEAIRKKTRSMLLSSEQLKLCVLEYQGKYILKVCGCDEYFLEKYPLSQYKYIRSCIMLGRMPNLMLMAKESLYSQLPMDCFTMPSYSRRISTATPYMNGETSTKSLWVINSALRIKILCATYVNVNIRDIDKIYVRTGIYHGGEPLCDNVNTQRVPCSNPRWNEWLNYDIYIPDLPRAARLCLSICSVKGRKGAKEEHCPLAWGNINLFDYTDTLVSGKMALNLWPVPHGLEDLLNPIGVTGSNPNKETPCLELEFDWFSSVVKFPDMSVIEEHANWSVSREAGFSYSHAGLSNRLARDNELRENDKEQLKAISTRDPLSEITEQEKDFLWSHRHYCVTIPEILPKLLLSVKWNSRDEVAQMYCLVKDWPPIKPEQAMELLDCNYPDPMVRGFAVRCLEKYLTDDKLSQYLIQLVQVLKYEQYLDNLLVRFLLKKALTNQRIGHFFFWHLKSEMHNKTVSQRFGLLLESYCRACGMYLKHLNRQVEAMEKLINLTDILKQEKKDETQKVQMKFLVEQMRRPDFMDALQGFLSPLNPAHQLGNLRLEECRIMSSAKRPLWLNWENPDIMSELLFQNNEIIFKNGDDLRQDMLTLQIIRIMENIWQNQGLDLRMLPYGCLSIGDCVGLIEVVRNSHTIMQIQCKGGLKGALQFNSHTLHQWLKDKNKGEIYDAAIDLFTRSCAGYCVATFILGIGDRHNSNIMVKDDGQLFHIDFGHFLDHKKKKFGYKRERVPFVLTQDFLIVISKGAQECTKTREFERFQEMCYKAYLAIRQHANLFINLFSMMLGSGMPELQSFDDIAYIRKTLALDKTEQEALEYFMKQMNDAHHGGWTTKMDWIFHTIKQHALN
Sequence of p110α/p85α (P27986 whole entry partner): as the sequence (P27986 whole entry partner) above

IC50 (p110α/p85α) [nM] | IC50 (p110γ) [nM] | IC50 (p110β/p85α) [µM] | IC50 ([1]; read-out: T47D proliferation) [µM] | IC50 (p110α/p85α; in vitro) [nM] | IC50 (p110γ; in vitro) [nM] | IC50 (p110β/p85α; in vitro) [µM] | IC50 [1, 2] [µM] | IC50 (p110δ/p85α) [µM] | Structure (SMILES)
< 100 | < 100 | < 10 | < 1 |  |  |  |  |  | Nc1nc2cc(-c3ccc4ncc(-c5cnn(CCO)c5)nc4c3)ccc2o1 [compound 108]
< 100 | < 1000 |  | < 10 |  |  |  |  |  | CC(=O)N1CCN(C(=O)c2cnc3ccc(-c4ccc5oc(N)nc5c4)cn23)CC1 [compound 113]
< 100 | < 10000 | < 0.1 | < 10 |  |  |  |  |  | CN1CCN(c2cnc3ccc(-c4ccc5nc(N)sc5c4)cc3n2)CC1 [compound 115]
< 100 | < 1000 | < 1 | < 1 |  |  |  |  |  | Nc1nc2cc(-c3ccc4ncc(N5CCOCC5)nc4c3)ccc2s1 [compound 116]
< 100 | < 1000 | < 1 | < 10 |  |  |  |  |  | Nc1nc2ccc(-c3ccc4ncc(N5CCOCC5)nc4c3)cc2o1 [compound 117]
< 100 | < 1000 | < 1 | < 1 |  |  |  |  |  | Nc1nc2cc(-c3ccc4ncc(N5CCNC(=O)C5)nc4c3)ccc2o1 [compound 135]
 |  |  | < 1 |  |  |  |  |  | Nc1nc2cc(-c3ccc4ncc(C(=O)NC5CCC(O)CC5)n4c3)ccc2o1 (stereo not drawn) [compound 143]
< 100 | < 10000 |  | < 10 |  |  |  |  |  | Nc1nc2cc(-c3ccc4ncc(C(=O)N5CCN(CCO)CC5)n4c3)ccc2o1 [compound 148]
< 100 |  | < 10 | < 10 |  |  |  |  |  | CC(C)N1CCN(C(=O)c2cnc3ccc(-c4ccc5oc(N)nc5c4)cn23)CC1 [compound 160]
< 100 | < 1000 | < 10 | < 10 |  |  |  |  |  | Nc1nc2cc(-c3ccc4ncn(CCO)c(=O)c4c3)ccc2o1 [compound 184]
 |  |  |  | < 100 | < 10000 | < 10 | < 10 |  | CC1CN(C(=O)c2cnc3ccc(-c4ccc5oc(N)nc5c4)cn23)CCO1 (stereo not drawn) [compound 201]
 |  |  |  | < 100 |  |  | < 10 |  | NC(=O)[C@@H]1CCCN1c1cnc2ccc(-c3ccc4oc(N)nc4c3)cc2n1 [compound 257]
 |  |  |  | < 100 | < 1000 | < 1 | < 10 |  | Nc1nc2cc(-c3ccc4ncc(N5CCN(C6CC6)CC5)nc4c3)ccc2o1 [compound 261]
 |  |  |  | < 100 | < 1000 |  | < 10 |  | NC(=O)[C@@H]1CCCN1C(=O)C1CN(c2cnc3ccc(-c4ccc5oc(N)nc5c4)cc3n2)C1 [compound 283]
 |  |  |  | < 100 | < 1000 | < 1 |  | < 10 | Nc1nc2cc(-c3ccc4ncc(N5CC(N6CCOCC6)C5)nc4c3)cc(F)c2o1 [compound 361]
 |  |  |  | < 10000 | < 10000 | < 10 |  | < 10 | Cc1cc(-c2ccc3ncc(N4CC(N5CCOCC5)C4)nc3c2)cc2nc(N)oc12 [compound 365]
 |  |  |  | < 1000 | < 1000 | < 1 |  | < 10 | Nc1nc2cc(-c3ccc4ncc(N5CC(N)C5)nc4c3)ccc2o1 [compound 367]
 |  |  |  | < 100 | < 1000 | < 10 |  | < 1 | Cc1cc(-c2ccc3oc(N)nc3c2)cc2c(C(=O)N3CCCC3)cnn12 [compound 368]
 |  |  |  | < 1000 | < 10000 | < 10 |  | < 10 | Nc1nc2cc(-c3ccc4ncc(C(=O)N5CCOCC5)n4c3)c(F)cc2o1 [compound 372]
 |  |  |  | < 100 | < 10000 | < 10 |  | < 10 | Nc1nc2cc(-c3ccc4ncc(N5CC(N6CCOCC6)C5)nc4c3)c(F)cc2o1 [compound 373]
 |  |  |  | < 1000 | < 1000 | < 10 |  | < 1 | Nc1nc2cc(-c3ccc4ncc(N5CC[C@H](N6CCOCC6)C5)nc4c3)ccc2o1 [compound 375]
 |  |  |  | < 100 | < 100 | < 10 |  | < 10 | Nc1nc2cc(-c3ccc4ncc(N5CC[C@@H](N6CCOCC6)C5)nc4c3)ccc2o1 [compound 376]
 |  |  |  | < 100 | < 10000 | < 1 |  | < 10 | CN1CCN([C@H]2CCN(c3cnc4ccc(-c5ccc6oc(N)nc6c5)cc4n3)C2)CC1 [compound 381]
 |  |  |  | < 100 | < 1000 | < 1 |  | < 10 | CN(C)[C@H]1CCN(c2cnc3ccc(-c4ccc5oc(N)nc5c4)cc3n2)C1 [compound 382]
